Results on 1 compound are retold here after PMC11938014, “Development and Application of Small Molecule–Peptide Conjugates as Cathepsin K-Specific Covalent Irreversible Inhibitors in Human Osteoclast and Lung Cancer” (JACS Au, 2025).

One assay deals with T1, CTSK in human OCs (Homo sapiens, UniProt P43235).
T1 construct: endogenous in cells; host or cells: primary human osteoclasts differentiated from blood monocytes with M-CSF and RANKL
T1 sequence (P43235 115-329): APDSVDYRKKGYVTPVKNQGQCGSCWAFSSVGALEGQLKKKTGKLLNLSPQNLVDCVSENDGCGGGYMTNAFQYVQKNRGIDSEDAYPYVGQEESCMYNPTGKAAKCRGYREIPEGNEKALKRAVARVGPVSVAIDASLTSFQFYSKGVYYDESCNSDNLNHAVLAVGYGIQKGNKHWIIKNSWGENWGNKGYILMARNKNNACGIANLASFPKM
Description: Gel-based residual cathepsin activity in human osteoclasts (GB123) and immunoblot. Type of assay: cell-based. How it is done: Figure 6 CTSK inhibition in human osteoclasts. (a) Scheme of the process of maturation of osteoclasts (OCs) derived from human monocytes in the presence of RANKL and M-CSF. (b) Representative pictures of bone resorption after incubation with human OCs treated with vehicle or inhibitors for 10–14 days. Bone resorption was observed by a toluidine blue stain. Increased staining indicates a higher number of resorption pits and greater bone resorption. (c) Quantitative analysis of pit formation in bone slices after incubation with OC treated with GD20 or ODN (1, 5 μM) relative to vehicle treated slices. Data represent mean ± standard errors, and asterisks represent p values relative to control, *p < 0.05, **p < 0.01, ***p < 0.001, n = 3 bone slices. (d) Representative images of tartrate-resistant acid phosphatase (TRAP) staining of the human osteoclasts on bone slices in the presence of vehicle or inhibitors, as indicated. […] (e) Quantification of osteoclasts number on bone slices after inhibitor treatment, detected by TRAP staining. (f) Human OCs were treated with vehicle or increasing concentrations of GD20 for 11 days (changing the medium every 2–3 days). The activity of CTSK in the cells was detected by 2 h labeling with a pan-cathepsin activity-based probe, GB123, followed by a fluorescence scan of the SDS-PAGE detecting CTSK attached to the probe; the red arrow points to the bands of CTSK (above 25 kDa). CTSK immunoblot of the same OCs is presented aside.
Cells were seeded 3 × 10^6 per 24-well plate (Primaria, Corning) in 1 mL of RPMI 1640 medium supplemented with 10% FBS and 50 μg/mL gentamicin. The next day, the medium was removed, and the adherent cells were washed with α-MEM and cultured for 14 consecutive days in α-MEM supplemented with 10% FBS, 1% penicillin, 1% streptomycin (Biological Industries), 100 ng/mL RANKL (R&D Systems), and 25 ng/mL M-CSF (R&D Systems) (for osteoclast) or with 25 ng/mL M-CSF and IL-4 (macrophage). Every 3 days, the media was changed with the required amount of M-CSF and RANKL until the giant osteoclasts appeared or with M-CSF and IL-4. […]

The next assay addresses T2, mouse CTSK in mouse OCs (Mus musculus, UniProt P55097).
T2 construct: endogenous in cells; host or cells: osteoclasts differentiated from C57BL/6 mouse bone marrow
T2 sequence (P55097 115-329): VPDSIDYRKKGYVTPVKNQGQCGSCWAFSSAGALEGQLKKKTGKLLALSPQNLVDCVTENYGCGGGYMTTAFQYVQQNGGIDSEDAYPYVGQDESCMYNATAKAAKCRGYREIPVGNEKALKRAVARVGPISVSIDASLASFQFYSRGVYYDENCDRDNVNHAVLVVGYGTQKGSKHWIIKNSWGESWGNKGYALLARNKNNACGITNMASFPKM
Description: Residual cathepsin activity in mice osteoclasts (GB123 gel). Type of assay: cell-based. The settings on record: 5 μM, 2 h, then GB123 2 h. How it is done:
(§1) Human and mouse CTSK species have a high degree of structural commonality. […] Therefore, to investigate the inhibitors’ cross-reactivity with mouse CTSK, mouse OCs were cultivated with mouse bone marrow cells stimulated with M-CSF and RANKL for 9–10 days. In addition, control cells differentiated into macrophages that highly express active cathepsins but not CTSK and were generated by treatment with M-CSF and IL-4.[49] Both intact OC and macrophage cells were incubated for 2 h with GD20, vehicle, or ODN, followed by a 2 h incubation with pan-cathepsin probe GB123. The CTSK-specific fluorescent band near 25 kDa disappeared in cells treated with GD20, whereas the other competing band remained unaltered (Figure 7a). Mice OS samples were blotted to identify the different cathepsins in the sample (Figure S9b).
(§2) Figure 7 CTSK inhibition in mice osteoclasts. (a) Activity and expression of CTSK in mouse OCs were assessed in the presence of indicated inhibitors. Intact OCs were treated for 2 h with 5 μM inhibitor in the culture medium, followed by 2 h of labeling of residual enzyme activity by GB123. Samples were analyzed by SDS-PAGE and scanned for fluorescence with a Typhoon scanner at 635/670 nm. Western blot with anti-CTSK is shown aside. […] Samples were analyzed by SDS-PAGE and scanned for fluorescence with a Typhoon scanner at 635/670 nm. […]

In assay [1] the test system is IL-4-induced macrophage cells. Description: Residual cathepsin activity in IL-4-induced macrophages lacking CTSK (GB123 gel). The note with it: 5 μM, 2 h, then GB123. The format is cell-based, mouse. How it is done:
as §1, §2

As to `CC(C)C[C@H](N[C@@H](c1ccc(-c2ccc(S(C)(=O)=O)cc2)cc1)C(F)(F)F)C(=O)NCC(=O)COC(=O)[C@@H]1CCCN1C(=O)[C@H](CC(C)C)NC(=O)OCC1c2ccccc2-c2ccccc21` [GD20], the “CTSK activity in human OC” value at CTSK in human OCs (1 μM, 11 days, GB123 labeling) is “blocked most of the CTSK activity”. On CTSK in human OCs (accompanying CTSK inhibition, GB123 labeling), the “CTSB activity in human OC” value is on record as “increase in CTSB activity”. Further, the “CTSK protein levels by immunoblot” value on CTSK in human OCs (all inhibitor concentrations) is reported as “elevated CTSK protein levels”. The “CTSK-specific fluorescent band near 25 kDa” value on mouse CTSK in mouse OCs is given as “disappeared”. For the same compound, the “inhibition of cathepsin bands in macrophages that lack CTSK” value in assay [1] is recorded as “lack of inhibition of any band”.
